Read-outs that look alike come from different tables or passages of the source.
How the values were obtained:
[1] = target: T1, recombinant mouse sEH (MsEH) (Mus musculus, UniProt P34914); experiment: Inhibition of recombinant mouse sEH (MsEH); format: biochemical
T1 sequence (P34914 1-554): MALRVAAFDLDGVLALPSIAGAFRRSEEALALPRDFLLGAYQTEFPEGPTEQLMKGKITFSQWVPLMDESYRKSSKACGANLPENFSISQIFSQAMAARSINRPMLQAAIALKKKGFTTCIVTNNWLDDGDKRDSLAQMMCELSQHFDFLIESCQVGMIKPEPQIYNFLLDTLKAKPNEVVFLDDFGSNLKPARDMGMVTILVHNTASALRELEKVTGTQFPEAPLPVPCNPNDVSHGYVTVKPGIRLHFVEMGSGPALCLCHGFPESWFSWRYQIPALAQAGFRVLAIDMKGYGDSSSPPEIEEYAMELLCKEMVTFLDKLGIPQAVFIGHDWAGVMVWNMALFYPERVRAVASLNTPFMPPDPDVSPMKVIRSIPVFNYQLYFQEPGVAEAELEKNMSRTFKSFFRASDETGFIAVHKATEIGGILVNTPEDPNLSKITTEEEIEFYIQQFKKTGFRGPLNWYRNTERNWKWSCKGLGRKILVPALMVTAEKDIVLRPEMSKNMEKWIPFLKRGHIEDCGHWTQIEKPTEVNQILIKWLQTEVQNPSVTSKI

Human sEH (HsEH) = target: T2, Human sEH (HsEH) (Homo sapiens, UniProt P34913); experiment: Inhibition of recombinant human sEH (HsEH); format: biochemical; conditions: HsEH 0.26 μM
T2 sequence (P34913 1-555): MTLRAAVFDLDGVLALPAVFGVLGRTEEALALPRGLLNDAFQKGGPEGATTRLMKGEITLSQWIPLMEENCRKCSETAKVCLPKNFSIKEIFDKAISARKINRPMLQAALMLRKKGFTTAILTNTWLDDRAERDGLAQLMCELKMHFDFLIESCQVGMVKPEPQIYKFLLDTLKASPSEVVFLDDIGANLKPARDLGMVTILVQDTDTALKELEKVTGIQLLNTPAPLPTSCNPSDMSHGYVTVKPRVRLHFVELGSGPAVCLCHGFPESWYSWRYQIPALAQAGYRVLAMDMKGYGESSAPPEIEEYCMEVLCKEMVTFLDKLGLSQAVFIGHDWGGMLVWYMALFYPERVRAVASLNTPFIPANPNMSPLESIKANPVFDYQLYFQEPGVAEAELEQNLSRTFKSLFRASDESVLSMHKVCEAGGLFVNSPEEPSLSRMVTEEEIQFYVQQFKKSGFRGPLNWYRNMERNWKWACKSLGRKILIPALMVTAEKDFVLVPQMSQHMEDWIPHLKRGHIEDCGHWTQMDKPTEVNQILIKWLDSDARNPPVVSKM

[2] = Table 1, MsEH 0.13 μM, read-out: Mouse sEH IC50
[3] = Table 2, MsEH 0.13 μM, read-out: Mouse sEH IC50

Row | Compound | IC50 [1, 2] [nM] | IC50 (Human sEH (HsEH); Table 1) [nM] | IC50 [1, 3] [nM] | IC50 (Human sEH (HsEH); Table 2) [nM] | IC50 [1] [nM]
1 | O=C(NC1CCCCC1)Oc1ccccc1CO [compound 224] |  | 320 ± 80 |  |  | 990 ± 20
2 | CC1CCC(NC(=O)NC2CCCCC2)CC1 (stereo not shown) [compound 538] | 50 ± 10 | 100 ± 10 |  |  | 
3 | O=C(NC1CCCCC1)OCCCCC1CCCCC1 [compound 276] | 1100 ± 100 | 340 ± 20 |  |  | 
4 | CC(NC(=O)NC1CCCCC1)C1C2CC3CC(C2)CC1C3 (stereo not shown) [compound 358] | 50 ± 10 | 180 ± 40 |  |  | 
5 | CCCCCCNC(=O)Nc1ccccc1 [compound 157] | 850 ± 10 | 1430 ± 30 |  |  | 
6 | O=C(NCCCc1ccccc1)Nc1ccccc1 [compound 430] | 210 ± 20 | 550 ± 30 |  |  | 
7 | CCCCCCCCCNC(=O)NCCC [compound 429] | 380 ± 40 | 1700 ± 400 |  |  | 
8 | O=C(NC1CCCCCCCCCCC1)NC12CC3CC(CC(C3)C1)C2 [compound 413] | 50 ± 10 | 100 ± 10 |  |  | 
9 | O=C(NC1CCCCC1)OC1C2CC3CC(C2)CC1C3 (stereo not shown) [compound 260] | 60 ± 10 | 100 ± 10 |  |  | 
10 | CCCCCCCCNC(=O)NCCC [compound 380] | 730 ± 30 | 680 ± 30 |  |  | 
11 | OC(c1ccccc1)C1OC1c1ccccc1 (racemic) [R=C6H5, R′=C6H5, X—Y=CH—OH, ±] |  |  | 12600 ± 900 | 22000 ± 2000 | 
12 | O=C(NC1CCCCC1)OC1CCCCC1 [compound 42] | 60 ± 10 | 130 ± 10 |  |  | 
13 | CCCNC(=O)NC1CCCCCCCCCCC1 [compound 189] | 800 ± 30 | 1000 ± 200 |  |  | 
14 | O=C(Nc1ccc(Cl)cc1)Nc1ccc(Cl)c(Cl)c1 |  | 120 ± 10 |  |  | 360 ± 20
15 | CCCCCCCCCCCCNC(=O)NC1CCCCC1 [compound 297] | 50 ± 10 | 100 ± 10 |  |  | 
16 | O=C(NCCc1ccccc1)NCc1ccccc1 [compound 470] | 590 ± 80 | 7600 ± 100 |  |  | 
17 | CCCCCCCCCCCCNC(=O)NC1CCC1 [compound 504] | 800 ± 100 | 23000 ± 4000 |  |  | 
18 | O=C(NC1CCCCC1)NC1CC2CCC1C2 (stereo not shown) [compound 543] | 50 ± 10 | 100 ± 10 |  |  | 
19 | CCCCCCCCNC(=O)NC(C)C [compound 183] | 1060 ± 70 | 5900 ± 300 |  |  | 
20 | Cc1ccc(C(O)C2OC2c2ccc(-c3ccccc3)cc2)cc1 (racemic) |  |  | 90 ± 10 | 150 ± 20 | 
21 | ON=C(c1ccccc1)C1OC1c1ccc(-c2ccccc2)cc1 (racemic) [R=4-C6H5—C6H4, R′=C6H5, X—Y=C═NOH, ±] |  |  | 42000 ± 3000 | 35000 ± 1000 | 
22 | CC1CCCCC1NC(=O)NC1CCCCC1 (stereo not shown) [compound 551] | 50 ± 10 | 100 ± 10 |  |  | 
23 | CCCCCCNC(=O)Nc1cccc(Cl)c1 [compound 178] | 310 ± 10 | 250 ± 10 |  |  | 
24 | C(=NC1CCCCC1)=NC1CCCCC1 |  | 470 ± 10 |  |  | 250 ± 20

Row | Compound | IC50 [1, 2] [nM] | IC50 (Human sEH (HsEH); Table 1) [nM] | IC50 [1, 3] [nM] | IC50 (Human sEH (HsEH); Table 2) [nM] | IC50 [1] [nM]
25 | CCCCCCNC(=O)Nc1ccc2ccccc2c1 [compound 143] | 1000 ± 100 | 570 ± 10 |  |  | 
26 | CCCCCCNC(=O)Nc1ccc(C(C)C)cc1 [compound 287] | 90 ± 10 | 100 ± 10 |  |  | 
27 | CCCCCCCCCCCCNC(=O)NCCCC [compound 531] | 140 ± 20 | 640 ± 30 |  |  | 
28 | CCCCCCCCCCNC(=O)Nc1cccc(Cl)c1 [compound 172] | 120 ± 10 | 300 ± 10 |  |  | 
29 | O=C(NCC1CCCCC1)NC1CCCCC1 [compound 57] | 60 ± 10 | 160 ± 10 |  |  | 
30 | CCCCCCCCCCOC(=O)NC [compound 248] |  | 2900 ± 600 |  |  | 330 ± 50
31 | O=C(NC1CCCCC1)NC1CCCC1 [compound 23] | 100 ± 10 | 1690 ± 50 |  |  | 
32 | CC(C)(C)C1CCC(NC(=O)NC2CCCCC2)CC1 (stereo not shown) [compound 428] | 50 ± 100 | 100 ± 10 |  |  | 
33 | O=C(NC1CCCCC1)NC1C2CC3CC(C2)CC1C3 (stereo not shown) [compound 427] | 50 ± 10 | 100 ± 10 |  |  | 
34 | O=C(NC12CC3CC(CC(C3)C1)C2)NC12CC3CC(CC(C3)C1)C2 [compound 411] | 50 ± 10 | 100 ± 10 |  |  | 
35 | CCNC(=O)OC1CCCCC1 [compound 255] |  | 2880 ± 40 |  |  | 480 ± 70
36 | O=C(NCCCc1ccccc1)NC12CC3CC(CC(C3)C1)C2 [compound 438] | 50 ± 10 | 100 ± 10 |  |  | 
37 | CC(C)[C@@H]1CC[C@@H](C)C[C@H]1OC(=O)NC1CCCCC1 [compound 225] | 840 ± 100 | 1050 ± 30 |  |  | 
38 | O=C(O)CCCCCCCCCCCNC(=O)Nc1ccc2ccccc2c1 [compound 283] | 700 ± 200 | 1120 ± 30 |  |  | 
39 | [O-][S+](c1ccccc1)C1OC1c1ccccc1 (racemic) [R=C6H5, R′=C6H5, X—Y=S═O, ±] |  |  | 2300 ± 400 | 310 ± 20 | 
40 | O=C(NC1CCCCC1)Oc1ccc2ccccc2c1 [compound 110] |  | 350 ± 10 |  |  | 210 ± 10
41 | ON=C(c1ccccc1)C1OC1c1ccccc1 (racemic) [R=C6H5, R′=C6H5, X—Y=C═NOH, ±] |  |  | 3500 ± 500 | 290 ± 10 | 
42 | O=C(NC1CCCCCC1)NC1CCCCC1 [compound 22] | 50 ± 100 | 100 ± 10 |  |  | 
43 | CCOC(CNC(=O)Nc1ccc(C(C)C)cc1)OCC [compound 159] | 590 ± 30 | 3400 ± 40 |  |  | 
44 | CCCCCCCCCNC(=O)NC1CCCCC1 [compound 473] | 50 ± 10 | 100 ± 10 |  |  | 
45 | O=C(NC1CCCCCCCCCCC1)NC1CCCCC1 [compound 119] | 50 ± 10 | 100 ± 10 |  |  | 
46 | O=C(c1ccccc1)C1OC1c1ccc(F)cc1 (racemic) [R=4-F-C6H4, R′=C6H5, X—Y=C═O, ±] |  |  | 1300 ± 300 | 300 ± 100 | 
47 | O=C(c1ccccc1)C1OC1c1ccccc1 (racemic) [R=C6H5, R′=C6H5, X—Y=C═O, ±] |  |  | 2900 ± 300 | 300 ± 100 | 

The next lines start with results.

Row | IC50 [1, 2] [nM] | IC50 (Human sEH (HsEH); Table 1) [nM] | IC50 [1, 3] [nM] | IC50 (Human sEH (HsEH); Table 2) [nM] | Compound | IC50 [1] [nM]
48 | 50 ± 10 | 1500 ± 100 |  |  | CN(C)c1ccc(NC(=O)NC2CCCCC2)cc1 [compound 362] | 
49 | 70 ± 10 | 150 ± 10 |  |  | O=C(Nc1ccncc1)NC1CCCCC1 [compound 100] | 
50 | 850 ± 20 | 480 ± 10 |  |  | O=C(Nc1cccc2ccccc12)NC1CCCCC1 [compound 59] | 
51 | 60 ± 10 | 680 ± 30 |  |  | O=C(CCCCc1ccccc1)NC1CCCCC1 [compound 381] | 
52 | 60 ± 10 | 160 ± 20 |  |  | O=C(NCCc1ccccc1)NC1CCCCC1 [compound 36] | 
53 | 110 ± 30 | 70 ± 20 |  |  | CCCCCCNC(=O)NC1CCCCC1 [compound 286] | 
54 | 50 ± 10 | 100 ± 10 |  |  | O=C(Nc1ccc(OC(F)(F)F)cc1)NC1CCCCC1 [compound 343] | 
55 | 60 ± 10 | 270 ± 20 |  |  | CC(=O)c1ccc(NC(=O)NC2CCCCC2)cc1 [compound 126] | 
56 | 50 ± 10 | 100 ± 10 |  |  | O=C(Nc1ccc(Oc2ccccc2)cc1)NC1CCCCC1 [compound 140] | 
57 | 760 ± 20 | 1390 ± 20 |  |  | O=C(Nc1ccccc1)NC1CCCCC1 [compound 21] | 
58 | 50 ± 10 | 160 ± 10 |  |  | CCCCCCc1ccc(NC(=O)NC2CCCCC2)cc1 [compound 501] | 
59 | 50 ± 10 | 1500 ± 100 |  |  | Nc1ccc(CNC(=O)NC2CCCCC2)cc1 [compound 379] | 
60 | 40 ± 10 | 290 ± 10 |  |  | O=C(NCCCc1ccccc1)NC1CCCCC1 [compound 104] | 
61 | 170 ± 10 | 110 ± 10 |  |  | O=C(Nc1ccc(Br)cc1)NC1CCCCC1 [compound 65] | 
62 | 50 ± 10 | 100 ± 20 |  |  | O=C(NC1CCCCC1)OCc1cccc2ccccc12 [compound 262] | 
63 | 70 ± 20 | 200 ± 20 |  |  | O=C(NCCc1ccc(Cl)cc1)NC1CCCCC1 [compound 361] | 
64 | 780 ± 20 | 430 ± 20 |  |  | O=C(Nc1ccc(F)cc1)NC1CCCCC1 [compound 60] | 
65 | 50 ± 10 | 3700 ± 300 |  |  | C[C@@H](NC(=O)NC1CCCCC1)c1ccccc1 [compound 545] | 
66 | 710 ± 40 | 230 ± 10 |  |  | COc1ccc(NC(=O)NC2CCCCC2)cc1 [compound 67] | 
67 | 50 ± 10 | 100 ± 40 |  |  | O=C(NC(=O)c1ccc(Cl)cc1)NC1CCCCC1 [compound 257] | 
68 | 60 ± 10 | 100 ± 10 |  |  | N#Cc1ccc(NC(=O)NC2CCCCC2)cc1 [compound 118] | 
69 | 50 ± 10 | 100 ± 10 |  |  | O=C(NC1CCCCC1)NC1CCCc2ccccc21 (stereo not shown) [compound 434] | 
70 | 50 ± 10 | 100 ± 10 |  |  | C[C@H](NC(=O)NC1CCCCC1)c1ccccc1 [compound 544] | 
71 | 50 ± 10 | 190 ± 10 |  |  | O=C(NCc1ccc(Cl)cc1)NC1CCCCC1 [compound 193] | 

— patent publication US6756210B2, “Linoleic acid diol and glucuronide conjugate levels as diagnostic markers of disorders of abnormal regulation of cytochrome P450 metabolism of unsaturated fatty acids” (The Regents of the University of California, priority 2001, dated 2004)
